Experimental findings from patent US11248013B2, “Tricyclic inhibitors of poly(ADP-ribose)polymerase” (Rakovina Therapeutics Inc., priority 2011, dated 2022) are described below.

Where only a bound is given, the exact number is not on record here.

Test [1] deals with PARP-1 (Homo sapiens (Human), UniProt P09874). Kind of test: PARP-1 Enzyme Assay (HT Universal Colorimetric PARP Assay Kit). In kind it is biochemical. As to conditions: OD450, read-out: IC50 (PARP-1 inhibition). As for the experimental part:
Inhibition of PARP-1 enzymatic activities was measured using an HT Universal Colorimetric PARP Assay Kit (Trevigen, catalogue #4677-096-K) following the standard procedures.
Serial dilutions of PARP compounds were added to appropriate wells. The compound was incubated with PARP enzyme at RT for 10 min, and the reaction was initiated by addition of the PARP substrate cocktail, Each concentration of compound was tested in triplicate wells. After 15 min reaction, the reaction was stopped, and the Strep-HRP was added into each well and incubated for 1 h at RT. After addition of TACS-Sapphire™ colorimetric substrate and incubated in dark for 15 min, the OD450 was read out with an EnVision instrument. IC50 values (the concentration at which 50% of the enzyme activity is inhibited) were calculated, which are determined over a range of different concentrations, normally from 10 μM to 0.1 nM.

The target in test [2] is intracellular PARP enzyme (Homo sapiens, UniProt P09874). Briefly: PARP Cell Assay (IHC, intracellular poly(ADP)-ribose formation in C41 cells). The class given is cell-based. The note with it: C41 cells (Human cervical carcinoma), 2 h compound, 1.0 mM H2O2 for 10 min; read-out: EC50 (TARP cell assay). How it is done: Inhibition of intracellular PARP enzyme was determined using an immunohistochemistry (IHC) assay. The cellular assay measures the formation of poly (ADP)-ribose catalyzed by PARP inside cells.
Anti-PAR (Ab-1) Mouse mAb (10H) (Calbiochem, AM-80); Anti-Mouse IgG (whole molecule)-FITC antibody produced in goat (sigma, F2012); DAPI (sigma, D9542).
The C41 cells (Human cervical carcinoma; ATCC No. CRL-1594) were planted into 96-well plates at 8.0E4 cells/well and incubated at 37° C. overnight. Cells were washed with 37° C. warmed PBS once and treated with test compounds for 2 h in 96-well plates. Cells were washed with 37° C. warmed PBS once, and PARP was activated by damaging DNA with 1.0 mM H2O2 for 10 min. Cells were washed with ice-cold PBS once and fixed with pre-chilled methanol/acetone (7:3) at −20° C. for 10 min. After air-drying, plates were rehydrated with PBS and blocked using 5% nonfat dry milk in PBS-Tween (0.05%) (block solution) for 30 min at room temperature. […] After washing with PBS-Tween20.5 times, analysis was performed using Vector 3 Microplate Reader (PerkinElmer) set at the excitation (485 nm) and emission (535 nm) wavelength for FITC or the excitation (364 nm) and emission (454 nm) wavelength for DAPI. […]

Sequence of PARP-1 (P09874 whole entry): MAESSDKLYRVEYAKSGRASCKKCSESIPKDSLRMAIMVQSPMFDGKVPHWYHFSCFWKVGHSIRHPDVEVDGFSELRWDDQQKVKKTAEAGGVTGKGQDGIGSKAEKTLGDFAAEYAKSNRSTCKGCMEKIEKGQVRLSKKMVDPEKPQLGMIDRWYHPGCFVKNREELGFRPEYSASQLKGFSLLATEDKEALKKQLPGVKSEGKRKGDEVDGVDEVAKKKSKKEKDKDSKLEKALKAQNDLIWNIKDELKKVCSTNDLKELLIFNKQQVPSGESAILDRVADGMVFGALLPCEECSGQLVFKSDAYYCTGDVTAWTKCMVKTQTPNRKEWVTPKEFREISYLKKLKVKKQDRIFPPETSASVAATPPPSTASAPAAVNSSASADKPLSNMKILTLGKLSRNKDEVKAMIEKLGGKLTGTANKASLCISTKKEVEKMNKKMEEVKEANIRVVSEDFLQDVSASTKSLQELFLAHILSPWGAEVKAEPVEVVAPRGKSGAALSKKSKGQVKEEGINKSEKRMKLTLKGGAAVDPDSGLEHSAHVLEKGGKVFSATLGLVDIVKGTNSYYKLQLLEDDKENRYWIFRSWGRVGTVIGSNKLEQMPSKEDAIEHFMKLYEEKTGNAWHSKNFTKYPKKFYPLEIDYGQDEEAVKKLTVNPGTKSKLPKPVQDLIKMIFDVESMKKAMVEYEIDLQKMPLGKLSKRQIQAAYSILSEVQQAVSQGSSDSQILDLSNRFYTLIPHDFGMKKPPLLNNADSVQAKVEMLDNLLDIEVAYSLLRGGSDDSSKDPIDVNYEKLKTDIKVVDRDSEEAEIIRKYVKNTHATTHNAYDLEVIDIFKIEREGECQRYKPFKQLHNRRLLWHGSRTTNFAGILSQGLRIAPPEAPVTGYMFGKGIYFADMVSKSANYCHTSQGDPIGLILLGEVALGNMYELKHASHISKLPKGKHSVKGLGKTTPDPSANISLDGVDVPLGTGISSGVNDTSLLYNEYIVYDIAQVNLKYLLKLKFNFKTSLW
Sequence of intracellular PARP enzyme (P09874 2-1014 limits assumed): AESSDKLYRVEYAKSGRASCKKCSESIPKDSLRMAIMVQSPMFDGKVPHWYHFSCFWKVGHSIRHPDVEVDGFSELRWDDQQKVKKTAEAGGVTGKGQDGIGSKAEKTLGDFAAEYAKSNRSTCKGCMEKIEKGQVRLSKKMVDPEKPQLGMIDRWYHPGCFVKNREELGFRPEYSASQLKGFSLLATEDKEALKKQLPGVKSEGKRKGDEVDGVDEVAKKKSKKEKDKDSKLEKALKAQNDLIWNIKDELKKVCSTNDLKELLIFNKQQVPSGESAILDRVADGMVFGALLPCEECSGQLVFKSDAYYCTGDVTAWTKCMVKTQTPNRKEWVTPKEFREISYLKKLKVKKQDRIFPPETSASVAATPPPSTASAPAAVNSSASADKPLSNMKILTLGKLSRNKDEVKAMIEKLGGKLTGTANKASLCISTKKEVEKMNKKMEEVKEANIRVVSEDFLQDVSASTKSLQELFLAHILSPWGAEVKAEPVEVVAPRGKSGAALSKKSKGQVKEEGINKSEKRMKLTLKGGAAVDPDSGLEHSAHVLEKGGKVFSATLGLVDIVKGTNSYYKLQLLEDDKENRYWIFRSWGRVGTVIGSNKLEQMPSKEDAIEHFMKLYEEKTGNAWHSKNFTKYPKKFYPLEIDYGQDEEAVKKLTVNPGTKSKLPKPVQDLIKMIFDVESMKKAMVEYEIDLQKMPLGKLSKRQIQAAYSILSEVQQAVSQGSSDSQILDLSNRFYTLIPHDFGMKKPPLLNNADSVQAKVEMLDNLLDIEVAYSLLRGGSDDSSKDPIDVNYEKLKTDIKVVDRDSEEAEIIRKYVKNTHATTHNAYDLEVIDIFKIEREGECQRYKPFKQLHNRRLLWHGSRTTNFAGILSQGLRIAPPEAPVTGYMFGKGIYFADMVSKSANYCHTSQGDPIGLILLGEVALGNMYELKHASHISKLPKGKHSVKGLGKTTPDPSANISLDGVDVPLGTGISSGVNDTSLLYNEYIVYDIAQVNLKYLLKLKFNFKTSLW

As to `CN1CCP(=O)(c2cc(Cc3n[nH]c(=O)c4ccccc34)ccc2F)CC1` [Example 40, 4-(4-fluoro-3-(1-methyl-4-oxido-1,4-azaphosphinan-4-yl)benzyl)phthalazin-1(2H)-one], the IC50 in test [1] lay in the range of 100 to 1000 nM.
Consider `CCN1CCP(=O)(c2cc(Cc3n[nH]c(=O)c4ccccc34)ccc2F)CC1` [Example 41, 4-(3-(1-ethyl-4-oxido-1,4-azaphosphinan-4-yl)-4-fluorobenzyl)phthalazin-1(2H)-one], for which, in test [1], the IC50 is below 100 nM.
On the same count and under the same terms, next, `CC(C)N1CCP(=O)(c2cc(Cc3n[nH]c(=O)c4ccccc34)ccc2F)CC1` [Example 42, 4-(4-fluoro-3-(1-isopropyl-4-oxido-1,4-azaphosphinan-4-yl)benzyl)phthalazin-1(2H)-one]: below 100 nM.
In the case of `O=c1[nH]nc(Cc2ccc(F)c(P3(=O)CCN(CC4CC4)CC3)c2)c2ccccc12` [Example 43, 4-(3-(1-(cyclopropylmethyl)-4-oxido-1,4-azaphosphinan-4-yl)-4-fluorobenzyl)phthalazin-1(2H)-one], the IC50 in test [1] was below 100 nM.
As to `CCCN1CCP(=O)(c2cc(Cc3n[nH]c(=O)c4ccccc34)ccc2F)CC1` [Example 45], the IC50 in test [1] is below 100 nM.
As to `CC(C)(C)CN1CCP(=O)(c2cc(Cc3n[nH]c(=O)c4ccccc34)ccc2F)CC1` [Example 46, 4-(4-fluoro-3-(1-neopentyl-4-oxido-l,4-azaphosphinan-4-yl)benzyl)phthalazin-1(2H)-one], the IC50 in test [1] was below 100 nM.
As to `CC(C)(C)CN1CCP(=O)(c2cc(Cc3n[nH]c(=O)c4ccccc34)ccc2F)CC1` [Example 47, 4-(4-fluoro-3-(1-neopentyl-4-oxido-1,4-azaphosphinan-4-yl)benzyl)phthalazin-1(2H)-one], the IC50 in test [1] was in the range of 100 to 1000 nM.
`CC(C)CCN1CCP(=O)(c2cc(Cc3n[nH]c(=O)c4ccccc34)ccc2F)CC1` [Example 48]: in test [2], the EC50 fell in the range of 100 to 1000 nM. For the same molecule, the IC50 in test [1] was below 100 nM.
Consider `O=c1[nH]nc(Cc2ccc(F)c(P3(=O)CCN(CC(F)(F)F)CC3)c2)c2ccccc12` [Example 49, 4-(4-fluoro-3-(4-oxido-1-(2,2,2-trifluoroethyl)-1,4-azaphosphinan-4-yl)benzyl)phthalazin-1(2H)-one], for which the IC50 in test [1] is below 100 nM.
`CP1(=O)CCN(C(=O)c2cc(Cc3n[nH]c(=O)c4ccccc34)ccc2F)CC1` [Example 50, 4-[[4-fluoro-3-(4-methyl-4-oxo-1,4-azaphosphinane-1-carbonyl)phenyl]methyl]-2H-phthalazin-1-one]: the IC50 in test [1] was below 100 nM.
As for `O=c1[nH]nc(Cc2ccc(F)c(P3(=O)CCN(C4CC4)CC3)c2)c2ccc(F)cc12` [Example 54, 4-(3-(1-cyclopropyl-4-oxido-1,4-azaphosphinan-4-yl)-4-fluorobenzyl)-7-fluorophthalazin-1(2H)-one], in test [1], the IC50 was below 100 nM.
Consider `[2H]C([2H])(c1ccc(F)c(P2(=O)CCN(C3CC3)CC2)c1)c1n[nH]c(=O)c2cc(F)ccc12` [Example 55, 4-[(3-(1-cyclopropyl-4-oxido-1,4-azaphosphinan-4-yl)-4-fluorophenyl)dideuteromethyl]-7-fluorophthalazin-1 (2H)-one], for which the IC50 in test [1] is below 100 nM.
Turning to `O=c1[nH]nc(Cc2ccc(F)c(P3(=O)CCN(c4ncccn4)CC3)c2)c2ccc(F)cc12` [Example 56, 4-(4-fluoro-3-(4-oxido-1-(pyrimidin-2-yl)-1,4-azaphosphinan-4-yl)benzyl)-7-fluorophthalazin-1(2H)-one], the IC50 in test [1] was below 100 nM.
Still for that read-out and setting: next, `[2H]C([2H])(c1ccc(F)c(P2(=O)CCN(c3ncccn3)CC2)c1)c1n[nH]c(=O)c2cc(F)ccc12` [Example 57, 4-[(4-fluoro-3-(4-oxido-1-(pyrimidin-2-yl)-1,4-azaphosphinan-4-yl)phenyl)dideuteromethyl]-7-fluorophthalazin-1(2H)-one]: below 100 nM; `O=c1[nH]nc(Cc2ccc(F)c(P3(=O)CCN(c4ncc(F)cn4)CC3)c2)c2ccccc12` [compound 35, 4-(4-fluoro-3-(4-oxido-1-(5-(fluoro)pyrimidin-2-yl)-1,4-azaphosphinan-4-yl)benzyl)phthalazin-1(2H)-one]: below 100 nM.
With “(+)-4-[[4-fluoro-3-(4-oxido-1-(pyrimidin-2-yl)-1,4-azaphosphinan-4-yl)phenyl)](hydroxymethyl)]-7-fluorophthalazin-1(2H)-one [Example 59]”, the IC50 in test [1] is below 100 nM.

By IC50 is commonly meant the concentration needed to halve the response being measured. What is called EC50 is the concentration that produces a half-maximal response.
